From patent US20260191793A1, “HBV SPECIFIC EXOSOMES AND USES THEREOF” (priority 2022, published 2026)
Entries after “also recorded” stand apart in the source; their conditions may differ.

Experiments:
HBV cccDNA = assay: HBV-infected HepG2-NTCP cells directly transfected with gRNA/Cas9 RNPs, HBV cccDNA qPCR; type: cell-based, Hepatitis B virus (HBV); conditions: direct transfection for 3 days
Excerpt: To test whether the synthetic gRNA/Cas9 can reduce newly formed HBV cccDNA in HepG2-NTCP cells, the cells with HBV particle-containing supernatants from HepDE19 cells (supernatants harvested 6 days after culture in Tet-free media) were infected. The HepG2-NTCP cells were infected with HBV particles for 6 days and then transfected with gRNA5, gRNA9, gRNA5 plus gRNA9 (in combination), or gRNAc RNPs for 3 days, followed by measuring HBV cccDNA. In another experiment, the infected HepG2-NTCP cells were incubated for 3 days with exosomes packaged with gRNA5, gRNA9, gRNA5 plus gRNA9 (in combination), or gRNAc RNPs, followed by measuring HBV cccDNA.
In another experiment, 1×10^6 HepG2-NTCP cells were infected using supernatants containing HBV particles from HepDE19 cells that were maintained for 6 days. The HBV-infected HepG2-NTCP cells were transfected with gRNA5, gRNA9, gRNA5 plus gRNA9, or gRNAc RNPs as described above. The cells were maintained for 3 days in a complete culture medium and then harvested for HBV cccDNA detection by qPCR.
Total and protein-free HBV DNAs were extracted from whole cell lysate using the Hirt DNA method according to a previously published protocol. […] HBV total DNA and cccDNA were analyzed by real-time PCR using a TaqMan PCR assay. […] The DNA levels were determined by the […] method and values were normalized to the control group.

HBV DNA = assay: Mismatch sensitive T7 endonuclease 1 (T7E1) assay in HepDE19 cells; type: cell-based, Hepatitis B virus (HBV); conditions: HepDE19 cells transfected for 3 days, T7E1 digestion of PCR products
Excerpt: DNA cleavage by CRISPR/Cas9 results in double-strand breaks (DSBs), which are repaired primarily by the non-homologous end-joining (NHEJ) pathway, resulting in indel mutations and transcriptionally active episomal variants. Thus, detecting DNA cleavage and indel mutations following CRISPR/Cas9-mediated DNA damage and repair is important for confirming its gene-editing effects. To validate the capability of the synthetic gRNA/Cas9 RNPs to introduce indel mutation and cleavage in HBV DNA in HepDE19 cells, a mismatch sensitive T7 endonuclease (T7E1) assay-was performed, following transfection of HepDE19 cells with gRNA5, gRNA9, gRNA5+gRNA9, or gRNAc RNPs. This assay allows for the detection of specific cleavage sites or indel mutations in the target gene (HBV DNA) in the treated cells. The indel mutagenesis was determined based on the DNA fragments detected after the gRNA/Cas9-mediated cleavage of the HBV DNA following T7E1 digestion of the specific PCR products.
The HBV DNA sequences surrounding gRNA-binding sites were amplified by PCR. […]
DNA cleavage by CRISPR/Cas9 results in double-strand breaks (DSBs), which are primarily repaired by the non-homologous end joining (NHEJ) repair pathway, resulting in gene mutations. […] The mutagenesis was determined based on the DNA fragments detected after the gRNA/Cas9-mediated cleavage of the HBV DNA following T7E1 digestion.

Sequence | HBV cccDNA levels (HBV cccDNA) | cleaved products / DSBs in HBV DNA after T7E1 treatment (HBV DNA)
GGTCTCCATGCGACGTGCAGNGG [gRNA9] | significantly reduced | cleaved products were observed; also recorded: DSBs were introduced
GTTATCGCTGGATGTGTCTGNGG (guide GUUAUCGCUGGAUGUGUCUGNGG; complexed with Cas9 protein, chemistry not fully specified) [gRNA5, tested as synthetic gRNA/Cas9 RNP] | significantly reduced | cleaved products were observed; also recorded: DSBs were introduced
